From patent US5482867A, “Spatially-addressable immobilization of anti-ligands on surfaces” (Affymax Technologies N.V., priority 1993, dated 1996)
Entries after “also recorded” stand apart in the source; their conditions may differ.

How the values were obtained:
[1] = target: T1, Avidin (Streptomyces avidinii, UniProt P22629); details: SBS: Avidin; cited from earlier work
[2] = target: T2, streptavidin (Streptomyces avidinii, UniProt P22629); assay: Scanning fluorescence imaging of Fluorescein-Streptavidin binding to caged-biotin glass slides after photodeprotection; details: NPOC, caproic-propyl spacer
T2 construct: purchased Amersham
T2 sequence (P22629 25-183): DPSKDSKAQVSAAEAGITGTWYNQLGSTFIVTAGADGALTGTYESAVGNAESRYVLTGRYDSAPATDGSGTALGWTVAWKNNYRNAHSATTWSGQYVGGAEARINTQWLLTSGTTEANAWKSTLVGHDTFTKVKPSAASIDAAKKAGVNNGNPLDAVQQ
Protocol: Commercially available glass microscope slides were derivatized with N-BOC-aminopropyltriethoxy silane according to literature procedures (for example, see J. Chromatography, 1974, Vol. 97, p. 33). The slides were incubated in a solution of 20% trifluoroacetic acid in methylene chloride for 30 minutes to remove the BOC protecting group. After washing sequentially with methylene chloride, dimethylformamide, and ethanol, the slides were neutralized by immersing in a solution of 10% diisopropylethyl amine in methylene chloride for 30 minutes and further washed with methylene chloride.
N-BOC-6-aminocaproic acid was converted to the BOP-activated ester in preparation for reaction with the derivatized glass slide. […]
[…], as described in the Example I, was mounted on a custom flow cell and illuminated through a 500 μm×500 μm checkerboard-pattern mask (Photo Sciences Inc., Torrance, Calif.) using broad-band UV/blue light. The light source was a 500 W Mercury arc lamp (Oriel Model 87330) equipped with a 350 nm-450 nm dichroic reflector and produced actinic light having an intensity of 12 mW/cm^2 as measured through a 360 nm bandpass filter. […]

[3] = target: T1, Avidin; assay: Blocking of subsequent 3H-biotin binding in streptavidin-treated microtiter wells
Protocol: All procedures using NVOC-biotin-OMe were conducted in dim red light. NVOC-biotin-OMe was dissolved in dimethylformamide (DMF) to a concentration 1 mM and diluted to 100 μM with phosphate-buffered saline pH 7.4. In order to remove any contaminants having high affinity for avidin, 2 ml of the NVOC-biotin-OMe solution was mixed with 1 ml of packed streptavidin-Sepharose-4B resin (SIGMA) which had been washed thoroughly to remove any non-covalently bound avidin. After stirring for three hours, the resin was removed by centrifugation followed by filtration (0.2 micron nylon filter).
Microtiter wells (Beckman EIA plates) were treated for 1 hr with 200 μl of 0.5 μg/ml of streptavidin in 10 mM sodium bicarbonate buffer (pH 9.6). […] The wells were then washed with PBS/Tween 20 and incubated for 1 hr at room temperature with 200 μl of PBS containing ^3 H-biotin (30 Ci/mmol, New England Nuclear). The wells were then washed with PBS/Tween and treated for 30 minutes at room temperature with 200 μl of 10% trichloroacetic acid in water. The radioactivity in 100 μl was then determined by liquid scintillation counting.

[4] = target: T2, streptavidin; assay: Scanning fluorescence imaging of Fluorescein-Biotin binding to streptavidin immobilized on a slide; details: 1 μM Fluorescein-Biotin, 20 minutes
Protocol: The microscope slide of Example I having NVOC-biotin covalently attached via a caproic-propyl spacer was illuminated and processed as in Example J, except that after preincubation with the PBS/BSA/Tween 20 solution, the surface was treated with 10 μg/ml solution of Streptavidin (in PBS/BSA/Tween 20) for 40 minutes at room temperature, followed by incubation with a 1 μM solution of Fluorescein-Biotin (5-(N-((5-(N-(6-(biotinoyl)amino) hexanoyl)amino)pentyl)thioureidyl)fluorescein, in PBS, pH 7.4) for 20 minutes. The resulting slide was then washed, dried, and examined using a scanning fluorescence microscope as described above.

[5] = Chromatographic (reverse-phase HPLC) evidence for photoremoval of the NVOC group in solution; type: physicochemical; details: 100 mM, two minutes, 1 watt/cm^2, 500 W Hg(Xe) arc lamp, 305 nm long pass filter; NVOC-biotin-ONP in acetonitrile, biotin in water
From the text: The cuvette was irradiated for two minutes at a power of 1 watt/cm^2 with a 500 W Hg(Xe) arc lamp (Oriel #66142) having a 305 nm long pass filter (Oriel #51450). Illuminated and non-illuminated samples were then subjected to reverse-phase HPLC.

[6] = tested on: avidin or streptavidin; details: cited from earlier work

T1 sequence (P22629 25-183): as above

COC(=O)CCCCC1SCC2C1NC(=O)N2C(=O)OC (stereo not drawn) [1'-N-methoxy-carbonylbiotin methyl ester]
Affinity (Ka) [1]: 10^7 M^-1

O=C(CCCC[C@@H]1SC[C@H]2[C@@H]1NC(=O)N2C(=O)OCc1cc2c(cc1[N+](=O)[O-])OCO2)Oc1ccc([N+](=O)[O-])cc1 [NPOC-biotin-ONP, N-1'-(6-nitropiperonyloxycarbonyl)-biotin para-nitrophenyl ester]
streptavidin binding upon photodeprotection (fluorescence image) [2]: spatially-localized streptavidin binding

COC(=O)CCCC[C@@H]1SC[C@H]2[C@@H]1NC(=O)N2C(=O)OCc1cc(OC)c(OC)cc1[N+](=O)[O-] [NVOC-biotin-OMe, N-1'-(6-nitroveratryloxycarbonyl)-biotin methyl ester]
affinity for avidin ([3]; after illumination in solution): high affinity
effectiveness in blocking the subsequent binding of 3H-biotin ([3]; illuminated (IL caged biotin), compared with biotin): nearly as effective as biotin
effect on the subsequent binding of 3H-biotin ([3]; non-illuminated, concentrations as high as 10^-5 M): no significant effect
affinity for avidin ([3]; prior to illumination): low affinity; also recorded: very low affinity

O=C(CCCCCNC(=O)CCCC[C@@H]1SC[C@@H]2NC(=O)N[C@@H]21)NCCCCCNC(=S)Nc1ccc2c(c1)C(=O)OC21c2ccc(O)cc2Oc2cc(O)ccc21 [Fluorescein-Biotin, 5-(N-((5-(N-(6-(biotinoyl)amino)hexanoyl)amino)pentyl)thioureidyl)fluorescein]
binding of Fluorescein-Biotin to immobilized streptavidin (fluorescence image) [4]: high fluorescence intensity

COc1cc(COC(=O)N2C(=O)N[C@@H]3[C@H](CCCCC(=O)Oc4ccc([N+](=O)[O-])cc4)SC[C@@H]32)c([N+](=O)[O-])cc1OC [NVOC-biotin-ONP, N-1'-(6-nitroveratryloxycarbonyl)-biotin para-nitrophenyl ester]
result of illumination (HPLC) [5]: converted to biotin-ONP upon illumination; also recorded: converted to Biotin-ONP by the illumination

N=C1NC2CSC(CCCCC(=O)O)C2N1 (stereo not drawn) [Iminobiotin]
Affinity (Ka) [1]: 10^11 M^-1

O=C(O)CCCC[C@@H]1SC[C@@H]2NC(=O)N[C@@H]21 [Biotin, reference compound]
result of illumination (HPLC) [5]: unaffected by the illumination

CN(CCCNC(=O)CCCC[C@@H]1SC[C@@H]2NC(=O)N[C@@H]21)CCCNc1ccc(N=[N+]=[N-])cc1[N+](=O)[O-] [photobiotin]
effect of carboxylate-terminus derivatization on binding to avidin or streptavidin [6]: does not significantly reduce binding to avidin or streptavidin

COC(=O)CCCCC1SCC2NC(=O)N(C(=O)OC)C21 (stereo not drawn) [3'-N-methoxy-carbonylbiotin methyl ester]
Affinity (Ka) [1]: 10^9 M^-1
